# Measurements from patent US20200009173A1, “TRIAZOLE-CONTAINING MACROLIDES AND OPHTHALMIC USES THEREFOR” (Tetard, Inc., priority 2017, published 2020).
# Like-named read-outs stand apart in the source and are kept apart here.
# Tests used:
# Type in all cases: cell-based
# P. Acnes = assay: MICs of solithromycin and comparator drugs against P. acnes; conditions: for MIC50 / MIC90: Cutibacterium acnes
# Text: EXAMPLE. The formulations described herein show overall higher potency against ocular pathogens than commercial standards. MICs (μg/ml) of Solithromycin and Comparator Drugs against P. Acnes (51 Species)
# S. pneumoniae = assay: MICs of solithromycin and comparator drugs, S. pneumoniae (30 species); conditions: for MIC50 / MIC90: Streptococcus pneumoniae
# Text: (§1) EXAMPLE. The formulations described herein show overall higher potency against ocular pathogens than commercial standards.
# (§2) MICs (μg/ml) of Solithromycin and Comparator Drugs against Bacterial Species
# H. influenzae = assay: MICs of solithromycin and comparator drugs, H. influenzae (30 species); conditions: for MIC50 / MIC90: Haemophilus influenzae
# Text: as §1, §2
# MSSA = assay: MICs of solithromycin and comparator drugs, MSSA (31 species); conditions: for MIC50 / MIC90: Staphylococcus aureus, MSSA
# Text: as §1, §2
# MSRA = assay: MICs of solithromycin and comparator drugs, MSRA (30 species); conditions: for I (intermediate susceptibility) / NS (not susceptible) / S (susceptible): 30 species
# Text: as §1, §2
# S. epidermidis = assay: MICs of solithromycin and comparator drugs, S. epidermidis (30 species); conditions: for MIC50 / MIC90: Staphylococcus epidermidis
# Text: as §1, §2
smiles,measurement,setting,value
C=CC1=C(C(=O)O)N2C(=O)[C@@H](NC(=O)/C(=N\O)c3csc(N)n3)[C@H]2SC1 [Cefdinir],MIC Range,P. Acnes,≤0.015 to 0.12 µg/mL
same,MIC50,P. Acnes; 51 species,0.03 µg/mL
same,MIC90,P. Acnes; 51 species,0.12 µg/mL
C=CC1=C(C(=O)O)N2C(=O)[C@@H](NC(=O)/C(=N\OCC(=O)O)c3csc(N)n3)[C@H]2SC1 [Cefixime],MIC Range,P. Acnes,≤0.03 to 0.5 µg/mL
same,MIC50,P. Acnes; 51 species,0.25 µg/mL
same,MIC90,P. Acnes; 51 species,0.5 µg/mL
COCC1=C(C(=O)O)N2C(=O)[C@@H](NC(=O)/C(=N\OC)c3csc(N)n3)[C@H]2SC1 [Cefpodoxime],MIC Range,P. Acnes,≤0.015 to 2 µg/mL
same,MIC50,P. Acnes; 51 species,0.5 µg/mL
same,MIC90,P. Acnes; 51 species,2 µg/mL
C[C@H]1c2cccc(O)c2C(=O)C2=C(O)[C@]3(O)C(=O)C(C(N)=O)=C(O)[C@@H](N(C)C)[C@@H]3[C@@H](O)[C@@H]21 [Doxycycline],MIC Range,P. Acnes,≤0.008 to 1 µg/mL
same,MIC50,P. Acnes; 51 species,0.06 µg/mL
same,MIC90,P. Acnes; 51 species,0.12 µg/mL
C[C@H]1COc2c(N3CCN(C)CC3)c(F)cc3c(=O)c(C(=O)O)cn1c23 [Levofloxacin],MIC Range,P. Acnes,0.06 to 2 µg/mL
same,MIC50,P. Acnes; 51 species,1 µg/mL
same,MIC90,P. Acnes; 51 species,1 µg/mL
CC(=O)NC[C@H]1CN(c2ccc(N3CCOCC3)c(F)c2)C(=O)O1 [Linezolid],MIC Range,P. Acnes,≤0.03 to 0.5 µg/mL
same,MIC50,P. Acnes; 51 species,0.25 µg/mL
same,MIC90,P. Acnes; 51 species,0.5 µg/mL
COc1c(N2C[C@@H]3CCCN[C@@H]3C2)c(F)cc2c(=O)c(C(=O)O)cn(C3CC3)c12 [Moxifloxacin],I (intermediate susceptibility),S. pneumoniae,0%
same,MIC Range,S. pneumoniae,0.015 to 0.25 µg/mL
same,NS (not susceptible),S. pneumoniae,0%
same,S (susceptible),S. pneumoniae,100%
same,MIC50,S. pneumoniae,0.12 µg/mL
same,MIC90,S. pneumoniae,0.25 µg/mL
same,I (intermediate susceptibility),H. influenzae,0%
same,MIC Range,H. influenzae,0.015 to 0.06 µg/mL
same,NS (not susceptible),H. influenzae,0%
same,S (susceptible),H. influenzae,100%
same,MIC50,H. influenzae,0.03 µg/mL
same,MIC90,H. influenzae,0.06 µg/mL
same,I (intermediate susceptibility),MSSA,0%
same,MIC Range,MSSA,0.015 to 2 µg/mL
same,NS (not susceptible),MSSA,6%
same,S (susceptible),MSSA,94%
same,MIC50,MSSA,0.06 µg/mL
same,MIC90,MSSA,0.12 µg/mL
same,MIC50,MSRA,2 µg/mL
same,MIC90,MSRA,8 µg/mL
same,I (intermediate susceptibility),MSRA,3%
same,NS (not susceptible),MSRA,87%
same,S (susceptible),MSRA,10%
same,I (intermediate susceptibility),S. epidermidis,3%
same,NS (not susceptible),S. epidermidis,13%
same,S (susceptible),S. epidermidis,83%
same,MIC50,S. epidermidis,0.06 µg/mL
same,MIC90,S. epidermidis,4 µg/mL
NC[C@H]1O[C@H](O[C@H]2[C@H](O)[C@@H](O[C@H]3O[C@H](CO)[C@@H](O)[C@H](N)[C@H]3O)[C@H](N)C[C@@H]2N)[C@H](N)C[C@@H]1O [Tobramycin],MIC Range,S. pneumoniae,4 to 16 µg/mL
same,MIC50,S. pneumoniae,16 µg/mL
same,MIC90,S. pneumoniae,16 µg/mL
same,MIC Range,H. influenzae,2 to 8 µg/mL
same,MIC50,H. influenzae,4 µg/mL
same,MIC90,H. influenzae,4 µg/mL
same,I (intermediate susceptibility),MSSA,0%
same,MIC Range,MSSA,0.12 to 4 µg/mL
same,NS (not susceptible),MSSA,0%
same,S (susceptible),MSSA,100%
same,MIC50,MSSA,0.5 µg/mL
same,MIC90,MSSA,0.5 µg/mL
same,MIC50,MSRA,1 µg/mL
same,MIC90,MSRA,> 64 µg/mL
same,I (intermediate susceptibility),MSRA,3%
same,NS (not susceptible),MSRA,30%
same,S (susceptible),MSRA,67%
same,I (intermediate susceptibility),S. epidermidis,3%
same,MIC Range,S. epidermidis,0.12 to 64 µg/mL
same,NS (not susceptible),S. epidermidis,23%
same,S (susceptible),S. epidermidis,73%
same,MIC50,S. epidermidis,0.5 µg/mL
same,MIC90,S. epidermidis,32 µg/mL
CN[C@H](CC(C)C)C(=O)N[C@H]1C(=O)N[C@@H](CC(N)=O)C(=O)N[C@H]2C(=O)N[C@H]3C(=O)N[C@H](C(=O)N[C@H](C(=O)O)c4cc(O)cc(O)c4-c4cc3ccc4O)[C@H](O)c3ccc(c(Cl)c3)Oc3cc2cc(c3O[C@@H]2O[C@H](CO)[C@@H](O)[C@H](O)[C@H]2O[C@H]2C[C@](C)(N)[C@H](O)[C@H](C)O2)Oc2ccc(cc2Cl)[C@H]1O [Vancomycin],MIC Range,P. Acnes; 51 species,0.12 to 1 µg/mL
same,MIC50,P. Acnes; 51 species,1 µg/mL
same,MIC90,P. Acnes; 51 species,1 µg/mL
